Measured values reported in patent US4752614A, “Pharmaceutical compositions of tellerium and selenium compounds for the induction of in vivo and in vitro production of cytokines” (Bar-Ilan University, priority 1987, dated 1988).
“And” between values parts separate entries of the source, which are not always exact repeats. Equal entries are not always repeated.

What was measured:
IL-2 [1] = assay: IL-2 activity (CTLD proliferation) of Con A supernatants of spleen cells from mice injected IP (Example 3); assay type: in vivo, Balb-c mice
Method: A solution of the compound of Example 1 was prepared as follows: 5 mg was placed in a volumetric flask to which was added 100 ml of a solution of 40% dimethyl sulfoxide (DMSO) and 60% phosphate buffer saline (PBS) solution resulting in a concentration of 10 μg/0.2 ml. If the solution becomes turbid, it is centrifuged at 2000 rpm for ten minutes and the clear supernatant portion is used.
The test animals were Balb-c, male, mice, 6 to 8 weeks of age. All injections were made intraperitoneally using 0.2 ml of the solution of the compound of Example 1 using 25 gauge 5/8" hypodermic needle.
The animals received the following injections:
Each of groups a, b, c and d consisted of 21 animals. The animals were sacrificed daily from 24 h to 7 days after injection.
On each day, spleen cells from three of the animals from each control group were pooled together and processed by passing the spleen cells through a 60 mesh stainless steel net in a 5 mm Petri dish containing PBS in order to separate the cells. The cells were collected and centrifuged at 1000 rpm for 10 minutes. The supernatant was discarded and the cells were treated for two minutes with 5 ml of hypotonic buffer (0.15M NH4 Cl, 0.01M KHCO3 dissolved in double distilled water, pH 7.2) to kill the erythrocytes. Thereafter, PBS was added to the cells and the cells were centrifuged for 10 minutes at 1000 rpm. The cells were washed twice with PBS and counted in a haemocytometer using trypan blue to test for viability. The cells were brought to a concentration of 10^7 cells/ml using enriched RPMI containing 10% fetal calf serum (Ser Lab, Sussex, England); 5×10^-5 M 2-mercaptoethanol and 3% of d-glutamine (Bio Lab Israel) (stock solution 2m M×1000 nonessential amino acids) (Bio Lab, Israel) (stock solution×100) and sodium pyruvate (Bio Lab, Israel) (stock solution 1m M×100).
An additional three animals from each of the experimental groups were sacrificed and each of the spleens was processed separately using the same procedure.
The cell mixture was divided into two groups.
(a) Cells at a concentration of 10^7 cells/ml enriched RPMI to which was added concanavalin-A (CON A) (DiFCO, Batch 352) 2 μg./ml. These cells were incubated in 5 mm Petri dishes (NUNC) for 24 hours at 37° C., 7.5% CO2. Supernatants were collected, centrifuged at 1,600 rpm for 10 minutes and stored at 4° C. until used. These supernatants were assayed for IL-2 and CSF activity.
Prior to incubation of the cells, samples were removed from culture plates and smears of the cultures were made by cytocentrifugation. Slides were stained with May-Grunwald-Giemsa (1:10) solution and evaluated morphologically. A radioactive thymidine assay was used to determine IL-2 activity.
1. Supernatants were tested for IL-2 activity by the proliferation of the IL-2 dependent cell line CTLD. The IL-2 assay is based on the growth dependence of these cultured T-cell lines on IL-2. T cells harvested from IL-2 dependent culture, washed and placed back in culture in the absence of IL-2 invariably die within 24 hr. By using tritiated thymidine incorporation (^3 H-TdR) as an index of cultured T-cell replication, the IL-2 microassay provides a highly reproducible and quantitive indication of the amount of IL-2 activity in the supernatant prepared hereinabove.
2. To assay a condition medium for IL-2 activity, a sample containing 5×10^4 CTLD cells, 10% fetal calf serum and 50% of supernatant in question, all were suspended in a final volume of 1 ml RPMI. Aliquots of 0.2 ml from each sample were placed in four replicate wells of 96 microwell tissue culture plates (NUNC). Conditioned medium was obtained from cultures of Charles River rat spleen cells stimulated with Con A that contained a known amount of IL-2 as a reference in all assays.
3. The microwells were incubated for 24 hr at 37 degrees C. after which 1 microcurie/well of ^3 H-methylthymidine was added. […]

fibrosarcoma cells = assay: Survival of mice with methylcholanthrene induced fibrosarcoma (Example 6); assay type: in vivo, Balb-c mice; set-up: mortality: concentration or dose not given beside the values
Method: A solution of 0.2% of methylcholanthrene (MCA, Sigma, USA) was prepared by dissolving 2 mg of the carcinogen in 1.0 ml of olive oil (Ref: Petra, et al., Cancer 19:302, 1961) with continuous shaking at 37° C. for 30 minutes. Six to eight week old C3 Heb mice were injected with 0.6 mg MCA/0.3 ml of solvent/mouse subcutaneously in the rear right thigh. After 21-30 days the induced tumor was surgically removed and pushed through 60 mesh stainless nets to obtain isolated cells. These cells were then further injected subcuteneously into the rear right thigh of C3 Heb mice 5 to 8 weeks of age, at a concentration of 10^6 cells/0.3 ml PBS/mouse/hypodermic needle 25 gauge, 5/8" to further induce tumor formation.
Balb-c mice, age 7 weeks were injected with methylcholanthrene to induce the formation of fibrosarcoma cells according to the procedure of Example 5. The test animals were divided into two groups.
(a) control (0.2 IP of 40% DMSO and 60% PBS)

[2] = Preliminary toxicity (LD50) in mice; assay type: in vivo; details: 6 week old mice
IL-2 [3] = assay: Oral administration in powdered sucrose, IL-2 content (Example 13); assay type: in vivo, mice; details: for IL-2 content: oral, 24 hours
Method: The compound of Example 1 was thoroughly mixed with powdered sucrose and 10 μg of the compound of example 1 in 25 mg of powdered sucrose was placed in the mouth of each mouse.
After 24 hours the mice were sacrificed and the spleens were processed as described above.

In the case of `Cl[TeH]1(Cl)(Cl)OCCO1` [Example 1], the IL-2 activity (IL-2 [1]; 1 μg IP, day 1, individual mouse) is reported as 25,919 CPM and 34,326 CPM and 16,718 CPM, the IL-2 activity (IL-2 [1]; 1 μg IP, day 2, individual mouse) is reported as 21,398 CPM and 22,050 CPM and 9,338 CPM and the IL-2 activity (IL-2 [1]; 1 μg IP, day 3, individual mouse) is reported as 10,130 CPM and 13,235 CPM and 2,176 CPM. For the same molecule, the IL-2 activity (IL-2 [1]; 1 μg IP, day 4, individual mouse) was 31,999 CPM and 14,226 CPM and 17,228 CPM, the IL-2 activity (IL-2 [1]; 1 μg IP, day 6, individual mouse) was 41,261 CPM and 80,314 CPM and 42,485 CPM and the IL-2 activity (IL-2 [1]; 1 μg IP, day 7, individual mouse) was 66,854 CPM and 58,094 CPM and 51,268 CPM. For the same molecule, the IL-2 activity (IL-2 [1]; 10 μg IP, day 1, individual mouse) was 24,335 CPM and 21,193 CPM and 25,381 CPM, the IL-2 activity (IL-2 [1]; 10 μg IP, day 2, individual mouse) was 31,901 CPM and 36,390 CPM and 22,066 CPM and the IL-2 activity (IL-2 [1]; 10 μg IP, day 3, individual mouse) was 20,316 CPM and 18,288 CPM and 12,126 CPM. The IL-2 activity (IL-2 [1]; 10 μg IP, day 4, individual mouse) was 26,644 CPM and 18,051 CPM and 65,963 CPM, the IL-2 activity (IL-2 [1]; 10 μg IP, day 6, individual mouse) was 22,040 CPM and 74,043 CPM and 43,838 CPM and the IL-2 activity (IL-2 [1]; 10 μg IP, day 7, individual mouse) was 85,216 CPM and 6,299 CPM. The “% Survival” value (fibrosarcoma cells; 10 μg IP, day 4 after innoculation) was 100%, the “% Survival” value (fibrosarcoma cells; 10 μg IP, day 9) was 100% and the “% Survival” value (fibrosarcoma cells; 10 μg IP, day 23) was 100%. For the same molecule, the “% Survival” value (fibrosarcoma cells; 10 μg IP, day 30) was 100%, the “% Survival” value (fibrosarcoma cells; 10 μg IP, day 37) was 100% and the “% Survival” value (fibrosarcoma cells; day 39, start of increased dosage regimen) was 100%. For the same molecule, the “% Survival” value (fibrosarcoma cells; day 41, increased dosage) was 100%, the “% Survival” value (fibrosarcoma cells; day 43, increased dosage) was 100% and the “% Survival” value (fibrosarcoma cells; day 46, increased dosage) was 80%. The “% Survival” value (fibrosarcoma cells; day 48, increased dosage) was 80%, the “% Survival” value (fibrosarcoma cells; day 50, increased dosage) was 80% and the “% Survival” value (fibrosarcoma cells; day 53, increased dosage) was 60%. For the same molecule, the “% Survival” value (fibrosarcoma cells; day 60, increased dosage) was 40%, the “% Survival” value (fibrosarcoma cells; day 67) was 20% and the “% Survival” value (fibrosarcoma cells; day 68) was 0%. The mortality (fibrosarcoma cells; group (b), until just after the increased dosage regimen (day 39)) was 0%, the LD50 [2] was 300 μg./25 g of body weight and the IL-2 content (IL-2 [3]; Test 1, 10 μg in 25 mg sucrose) was 250,175 cpm and 166,475 cpm. For the same molecule, the IL-2 content (IL-2 [3]; Test 2, 10 μg in 25 mg sucrose) was 55,382 cpm and 41,938 cpm and 29,172 cpm and the “induction of lymphokine production” value (IL-2 [3]; given in dry form or hydrolyzed in an aqueous diluent) was “active”.
